Structures can show the parent of a compound that is named as a salt. Where two headings read alike, the source gives them in different places.
Assays:
[1] = Intraparenchymal ICP measurement in adult patient with suspected bacterial meningitis; format: in vivo; conditions: 60 mg intravenous infusion; adult patient with ICP>20 mmHg and suspected bacterial meningitis
Method: In an adult patient with an ICP>20 mmHg and suspected bacterial meningitis as determined by lumbar puncture, one would administer by intravenous infusion 60 mg fasudil hydrochloride. One would place an intraparenchymal device to measure ICP in the patient.

[2] = system: adult male Sprague-Dawley rats; assay: Brain water content after endovascular perforation in rats; format: in vivo, rat; conditions: one treatment, 24 h
Method: A sharpened 4-0 nylon suture was introduced into the left internal carotid artery of 92 adult male Sprague-Dawley rats weighing […]. In 65 of the 92 rats, the bifurcation of the anterior and middle cerebral arteries was endovascularly perforated; in the remaining 27 rats, the suture was withdrawn without perforation.
At 0.5 hours after the procedure, 34 of the 65 perforated rats were administered 1.5 ml of 0.9% saline (vehicle group), and the remaining 31 were administered 10 mg/kg hydroxyfasudil dissolved in 1.5 ml of 0.9% saline (hydroxyfasudil group). The 27 unperforated rats received neither vehicle nor […] (sham group).
24 hours after the procedure, all rats were sacrificed. The animals' brains were removed and separated into left hemisphere, right hemisphere, cerebellum and brain stem. Each part was weighed immediately after removal (wet weight) and after drying in 100° C. for 72 h (dry weight). The percentage of water content was calculated as [(wet weight−dry weight)/wet weight]×100%.

[3] = system: adult male Sprague-Dawley rats; conditions: cited from earlier work; for Mean percentage of brain water content, Cerebellum / Mean percentage of brain water content, Left Hemisphere / Mean percentage of brain water content, Right Hemisphere: 24 hrs post-surgery
[4] = system: adult male Sprague-Dawley rats; conditions: cited from earlier work; for Garcia neurological score: SAH + HF
[5] = one treatment, 10 mg/kg at 0.5 h after perforation, 10 mg/kg
[6] = one treatment, 10 mg/kg at 0.5 h after perforation, listed as HF, 10 mg/kg
[7] = two treatments instead of one, and measurements at 72 hours after perforation

O=S(=O)(c1cccc2cnccc12)N1CCCNCC1 [fasudil hydrochloride]
ICP upon fasudil infusion [1]: reduction of ICP

O=c1[nH]ccc2c(S(=O)(=O)N3CCCNCC3)cccc12 [hydroxyfasudil]
Increase in water content versus sham group, right hemisphere ([2]; vehicle increase 0.5%): about 0.25%
Increase in water content versus sham group, cerebellum ([2]; vehicle increase 0.6%): about 0.2%
Increase in water content versus sham group, left hemisphere ([2]; vehicle increase 0.7%): about 0.3%
Improvement in water content increase, left hemisphere ([2]; versus vehicle, p<0.01): about 57%
Improvement in water content increase, right hemisphere ([2]; versus vehicle, p<0.01): about 70%
Improvement in water content increase, cerebellum ([2]; versus vehicle, p<0.05): about 67%
Mean percentage of brain water content, Cerebellum [3, 5]: ~78.7%
Mean percentage of brain water content, Left Hemisphere [3, 5]: ~79.3%
Mean percentage of brain water content, Right Hemisphere [3, 5]: ~79.25%
Mean percentage of brain water content, Cerebellum [3, 6]: 78.7%
Mean percentage of brain water content, Left Hemisphere [3, 6]: 79.3%
Mean percentage of brain water content, Right Hemisphere [3, 6]: 79.35%
Difference in brain water content between vehicle group and hydroxyfasudil group [3, 7]: failed to demonstrate any significant differences
Mean percentage of brain water content, Cerebellum ([3]; two treatments): 78.84%
Mean percentage of brain water content, Left Hemisphere ([3]; two treatments): 79.3%
Mean percentage of brain water content, Right Hemisphere ([3]; two treatments): 79.25%
Garcia neurological score ([4]; 1 treatment, 24 hrs, score out of 18): 14
Garcia neurological score ([4]; 1 treatment, 72 hrs): 14
Garcia neurological score ([4]; 2 treatments, 24 hrs): 15.5
Difference in neurological performance between vehicle group and hydroxyfasudil group [4, 7]: failed to demonstrate any significant differences
